Measurements as given in patent US20230265151A1, “GIP/GLP1 CO-AGONIST COMPOUNDS” (priority 2020, published 2023).
Like-named read-outs stand apart in the source and are kept apart here.

How the values were obtained:
Assay type in all cases: cell-based
[1] = molecular target: hGLP-1R (Homo sapiens, UniProt P43220); experiment: Functional cAMP formation (HTRF) in HEK-293 clonal cells expressing hGLP-1R, 0.1% bovine casein, without or with 1.0% human serum albumin; design: expressed in transfected cells; conditions: for Emax: read-out: hGLP-1R Emax, % ± SEM; for EC50: geometric mean, read-out: hGLP-1R EC50, nM (SEM, n)
Chain of hGLP-1R (P43220 24-463): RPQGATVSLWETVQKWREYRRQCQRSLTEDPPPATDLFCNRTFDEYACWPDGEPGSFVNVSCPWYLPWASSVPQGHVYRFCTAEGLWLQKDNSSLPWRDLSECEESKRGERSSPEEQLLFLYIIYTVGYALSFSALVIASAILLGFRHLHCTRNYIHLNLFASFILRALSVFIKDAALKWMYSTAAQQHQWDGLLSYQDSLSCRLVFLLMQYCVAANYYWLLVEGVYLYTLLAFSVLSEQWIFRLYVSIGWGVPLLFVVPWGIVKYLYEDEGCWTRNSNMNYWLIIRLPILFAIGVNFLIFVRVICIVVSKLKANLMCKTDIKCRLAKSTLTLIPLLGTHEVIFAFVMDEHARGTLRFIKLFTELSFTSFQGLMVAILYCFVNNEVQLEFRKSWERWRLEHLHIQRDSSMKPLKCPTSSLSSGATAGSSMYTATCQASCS
Method in brief: (§1)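 Cells were stimulated with peptide for 30 min at 37° C, then lysed in buffer carrying cAMP-d2 and anti-cAMP Eu3+-cryptate for a competitive HTRF read after at least 60 min at room temperature. The 665/620 nm ratio was converted to nM cAMP against a standard curve.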

[2] = molecular target: T1, hGIPR (Homo sapiens, UniProt P48546); experiment: Functional cAMP formation (HTRF) in HEK-293 clonal cells expressing hGIPR, 0.1% bovine casein, without or with 1.0% human serum albumin; conditions: for Emax: read-out: hGIPR Emax, % ± SEM; for EC50: geometric mean, read-out: hGIPR EC50, nM (SEM, n)
T1 construct: expressed in transfected cells
T1 sequence (P48546 22-466): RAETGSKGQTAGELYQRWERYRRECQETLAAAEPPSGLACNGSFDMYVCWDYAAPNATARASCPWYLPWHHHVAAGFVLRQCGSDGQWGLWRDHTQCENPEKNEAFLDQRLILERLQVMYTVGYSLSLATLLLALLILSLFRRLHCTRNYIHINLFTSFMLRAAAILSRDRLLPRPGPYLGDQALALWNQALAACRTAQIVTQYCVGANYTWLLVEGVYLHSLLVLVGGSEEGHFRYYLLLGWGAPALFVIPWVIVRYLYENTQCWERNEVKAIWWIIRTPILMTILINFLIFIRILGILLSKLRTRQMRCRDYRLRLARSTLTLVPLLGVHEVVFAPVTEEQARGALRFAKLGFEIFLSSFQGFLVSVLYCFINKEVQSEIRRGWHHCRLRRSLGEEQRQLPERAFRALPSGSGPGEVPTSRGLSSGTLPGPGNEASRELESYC
Method in brief: as §1

[3] = molecular target: T2, hGCGR (Homo sapiens, UniProt P47871); experiment: Functional cAMP formation (HTRF) in HEK-293 clonal cells expressing hGCGR, 0.1% bovine casein, without or with 1.0% human serum albumin; conditions: read-out: hGCGR EC50, nM (SEM, n)
T2 construct: expressed in transfected cells
T2 sequence (P47871 26-477): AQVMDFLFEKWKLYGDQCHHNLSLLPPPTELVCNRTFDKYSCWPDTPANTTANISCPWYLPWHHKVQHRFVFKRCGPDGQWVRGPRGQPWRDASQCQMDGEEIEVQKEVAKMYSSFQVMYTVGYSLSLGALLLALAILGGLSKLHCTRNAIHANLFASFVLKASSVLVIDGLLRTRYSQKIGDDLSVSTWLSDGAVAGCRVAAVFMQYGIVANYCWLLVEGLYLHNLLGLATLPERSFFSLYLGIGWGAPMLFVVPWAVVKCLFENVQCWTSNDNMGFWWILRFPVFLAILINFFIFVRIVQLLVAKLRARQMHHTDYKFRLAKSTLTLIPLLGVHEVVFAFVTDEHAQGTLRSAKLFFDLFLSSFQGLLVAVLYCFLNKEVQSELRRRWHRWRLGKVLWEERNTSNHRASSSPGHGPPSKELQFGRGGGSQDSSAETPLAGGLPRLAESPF
Method in brief: as §1

[4] = HEK293, 0.1% bovine casein and 1.0% human serum albumin, 37° C., percent of maximal response to GLP-1(7-36)NH2
[5] = HEK293, percent of maximal response to GLP-1(7-36)NH2, 37° C., 0.1% bovine casein, arithmetic mean
[6] = HEK293, 0.1% bovine casein and 1.0% human serum albumin, 37° C., percent of maximal response to GIP(1-42)NH2
[7] = HEK293, percent of maximal response to GIP(1-42)NH2, 37° C., 0.1% bovine casein, arithmetic mean
[8] = 0.1% bovine casein and 1.0% human serum albumin, 37° C., geometric mean
[9] = cAMP, incubated at 37° C., 0.1% bovine casein (no human serum albumin), geometric mean
[10] = 0.1% bovine casein and 1.0% human serum albumin, 37° C.
[11] = cAMP, incubated at 37° C., 0.1% bovine casein (no human serum albumin)
[12] = cAMP, 37° C., 0.1% bovine casein (no human serum albumin)

| Compound | Emax [1, 4] [%] | Emax [1, 5] [%] | Emax [2, 6] [%] | Emax [2, 7] [%] | EC50 [3, 8] [nM] | EC50 [3, 9] [nM] | EC50 [1, 10] [nM] | EC50 [1, 11] [nM] | EC50 [2, 10] [nM] | EC50 [2, 11] [nM] | Emax ([1]; HEK293, cAMP, 37° C., 0.1% bovine casein and 1.0% human serum albumin, percent of maximal response to GLP-1(7-36)NH2) [%] | Emax ([1]; HEK293, cAMP, 37° C., 0.1% bovine casein, percent of maximal response to GLP-1(7-36)NH2, arithmetic mean) [%] | EC50 [1, 12] [nM] | Emax ([2]; HEK293, cAMP, 37° C., 0.1% bovine casein and 1.0% human serum albumin, percent of maximal response to GIP(1-42)NH2) [%] | Emax ([2]; HEK293, cAMP, 37° C., 0.1% bovine casein, percent of maximal response to GIP(1-42)NH2, arithmetic mean) [%] | EC50 [2, 12] [nM] | EC50 ([3]; cAMP, 37° C., 0.1% bovine casein (no human serum albumin), geometric mean) [nM] | EC50 ([3]; cAMP, 37° C., 0.1% bovine casein and 1.0% human serum albumin, geometric mean (SEM, n)) [nM] |
| --- | --- | --- | --- | --- | --- | --- | --- | --- | --- | --- | --- | --- | --- | --- | --- | --- | --- | --- |
| CC[C@H](C)[C@H](NC(=O)[C@H](CC(C)C)NC(=O)[C@](C)(Cc1ccc(O)cc1)NC(=O)[C@@H](CCC(=O)O)NC(=O)[C@@H](NC(=O)[C@H](Cc1ccccc1)NC(=O)[C@H](CCC(=O)O)NC(=O)C(C)(C)NC(=O)[C@H](CCC(N)=O)NC(=O)[C@H](C)NC(=O)[C@H](CCCCNC(=O)COCCOCCNC(=O)COCCOCCNC(=O)CC[C@H](NC(=O)CCCCCCCCCCCCC(=O)O)C(=O)O)NC(=O)[C@H](CCCN)NC(=O)[C@H](CC(=O)O)NC(=O)[C@H](CC(C)C)NC(=O)[C@](C)(CC(C)C)NC(=O)[C@@H](NC(=O)[C@@H](NC(=O)[C@H](Cc1ccncc1)NC(=O)[C@H](CC(=O)O)NC(=O)[C@H](CO)NC(=O)[C@@H](NC(=O)[C@](C)(Cc1ccccc1F)NC(=O)[C@@H](NC(=O)CNC(=O)[C@H](CCC(=O)O)NC(=O)C(C)(C)NC(=O)[C@@H](N)Cc1ccc(O)cc1)[C@@H](C)O)[C@@H](C)O)C(C)(C)C)[C@@H](C)CC)[C@@H](C)CC)C(=O)N[C@@H](CCC(=O)O)C(=O)NCC(=O)NCC(=O)N[C@@H](CCCCNC(=O)COCCOCCNC(=O)COCCOCCNC(=O)CC[C@H](NC(=O)CCCCCCCCCCCCC(=O)O)C(=O)O)C(=O)N[C@@H](CO)C(=O)N[C@@H](CO)C(=O)NCC(=O)N[C@@H](C)C(=O)N1CCC[C@H]1C(=O)N1CCC[C@H]1C(=O)N1CCC[C@H]1C(=O)N[C@@H](CO)C(N)=O [Example 202] | 109 | 92.2 | 75.3 | 86 | > 9950 | > 9950 | – | – | – | – | – | – | – | – | – | – | – | – |
| CC[C@H](C)[C@H](NC(=O)[C@H](CCCN)NC(=O)[C@H](CC(=O)O)NC(=O)[C@H](CC(C)C)NC(=O)[C@](C)(CC(C)C)NC(=O)[C@@H](NC(=O)[C@H](CO)NC(=O)[C@H](Cc1ccncc1)NC(=O)[C@H](CC(=O)O)NC(=O)[C@H](CO)NC(=O)[C@@H](NC(=O)[C@](C)(Cc1ccccc1F)NC(=O)[C@@H](NC(=O)CNC(=O)[C@H](CCC(=O)O)NC(=O)C(C)(C)NC(=O)[C@@H](N)Cc1ccc(O)cc1)[C@@H](C)O)[C@@H](C)O)[C@@H](C)CC)C(=O)N[C@@H](C)C(=O)N[C@@H](CCC(N)=O)C(=O)NC(C)(C)C(=O)N[C@@H](CCCCNC(=O)COCCOCCNC(=O)COCCOCCNC(=O)CCCCCCCCCCCCC(=O)O)C(=O)N[C@@H](Cc1ccccc1)C(=O)N[C@H](C(=O)N[C@H](CCC(=O)O)C(=O)N[C@@](C)(Cc1ccc(O)cc1)C(=O)N[C@@H](CC(C)C)C(=O)N[C@H](C(=O)N[C@@H](CCC(=O)O)C(=O)NCC(=O)NCC(=O)N[C@@H](CCCCNC(=O)COCCOCCNC(=O)COCCOCCNC(=O)CCCCCCCCCCCCC(=O)O)C(=O)N[C@@H](CO)C(=O)N[C@@H](CO)C(=O)NCC(=O)N[C@@H](C)C(=O)N1CCC[C@H]1C(=O)N1CCC[C@H]1C(=O)N1CCC[C@H]1C(=O)N[C@@H](CO)C(N)=O)[C@@H](C)CC)[C@@H](C)CC [Example 195] | – | – | 87 ± 12.2 | 88.5 ± 4.32 | > 9950 | > 9950 | 14 | 0.343 | 0.771 | 0.0219 | – | – | – | – | – | – | – | – |
| CC[C@H](C)[C@H](NC(=O)[C@H](CCCN)NC(=O)[C@H](CC(=O)O)NC(=O)[C@H](CC(C)C)NC(=O)[C@](C)(CC(C)C)NC(=O)[C@@H](NC(=O)[C@](C)(CO)NC(=O)[C@H](Cc1ccncc1)NC(=O)[C@H](CC(=O)O)NC(=O)[C@H](CO)NC(=O)[C@@H](NC(=O)[C@](C)(Cc1ccccc1F)NC(=O)[C@@H](NC(=O)CNC(=O)[C@H](CCC(=O)O)NC(=O)C(C)(C)NC(=O)[C@@H](N)Cc1ccc(O)cc1)[C@@H](C)O)[C@@H](C)O)[C@@H](C)CC)C(=O)N[C@@H](C)C(=O)N[C@@H](CCC(N)=O)C(=O)NC(C)(C)C(=O)N[C@@H](CCCCNC(=O)COCCOCCNC(=O)COCCOCCNC(=O)CC[C@H](NC(=O)CCCCCCCCCCCCC(=O)O)C(=O)O)C(=O)N[C@@H](Cc1ccccc1)C(=O)N[C@H](C(=O)N[C@H](CCC(=O)O)C(=O)N[C@@](C)(Cc1ccc(O)cc1)C(=O)N[C@@H](CC(C)C)C(=O)N[C@H](C(=O)N[C@@H](CCCCNC(=O)COCCOCCNC(=O)COCCOCCNC(=O)CC[C@H](NC(=O)CCCCCCCCCCCCC(=O)O)C(=O)O)C(=O)NCC(=O)NCC(=O)N1CCC[C@H]1C(=O)N[C@@H](CO)C(=O)N[C@@H](CO)C(=O)NCC(=O)N[C@@H](C)C(=O)N1CCC[C@H]1C(=O)N1CCC[C@H]1C(=O)N1CCC[C@H]1C(=O)N[C@@H](CO)C(N)=O)[C@@H](C)CC)[C@@H](C)CC [Example 217] | 118 | 88 | 62.7 | 95.5 | > 9950 | > 9950 | – | 0.436 | 7.84 | 0.0309 | – | – | – | – | – | – | – | – |
| CC[C@H](C)[C@H](NC(=O)[C@H](CCCN)NC(=O)[C@H](CC(=O)O)NC(=O)[C@H](CC(C)C)NC(=O)[C@](C)(CC(C)C)NC(=O)[C@@H](NC(=O)C(C)(C)NC(=O)[C@H](Cc1ccncc1)NC(=O)[C@H](CC(=O)O)NC(=O)[C@H](CO)NC(=O)[C@@H](NC(=O)[C@](C)(Cc1ccccc1F)NC(=O)[C@@H](NC(=O)CNC(=O)[C@H](CCC(=O)O)NC(=O)C(C)(C)NC(=O)[C@@H](N)Cc1ccc(O)cc1)[C@@H](C)O)[C@@H](C)O)[C@@H](C)CC)C(=O)N[C@@H](C)C(=O)N[C@@H](CCC(N)=O)C(=O)NC(C)(C)C(=O)N[C@@H](CCCCNC(=O)COCCOCCNC(=O)CC[C@H](NC(=O)CCCCCCCCCCCCC(=O)O)C(=O)O)C(=O)N[C@@H](Cc1ccccc1)C(=O)N[C@H](C(=O)N[C@H](CCC(=O)O)C(=O)N[C@@](C)(Cc1ccc(O)cc1)C(=O)N[C@@H](CC(C)C)C(=O)N[C@H](C(=O)N[C@@H](CCCCNC(=O)COCCOCCNC(=O)CC[C@H](NC(=O)CCCCCCCCCCCCC(=O)O)C(=O)O)C(=O)NCC(=O)NCC(=O)N1CCC[C@H]1C(=O)N[C@@H](CO)C(=O)N[C@@H](CO)C(=O)NCC(=O)N[C@@H](C)C(=O)N1CCC[C@H]1C(=O)N1CCC[C@H]1C(=O)N1CCC[C@H]1C(=O)N[C@@H](CO)C(N)=O)[C@@H](C)CC)[C@@H](C)CC [Example 340] | – | – | – | – | – | – | – | – | – | – | 112 | 105 | 0.409 | 87.9 | 95.2 | 0.0206 | > 9950 | > 9950 |
